Here are results for 22 compounds from paper PMC6645336 (ACS Omega, 2018).

For series [1] the following is noted: cited from earlier work.
Series [2] is described as follows: Phase 1: chemical distribution from whole milk into milk fat and skim milk. It counts as physicochemical, cow. Conditions: for distribution into milk fat, percent of total amount added: mean of all doses; for ratio of concentration in milk fat to initial concentration in whole milk / ratio of concentration in skim milk to initial concentration in whole milk: mean of dose means.

The nature of series [3]: Phase 2: chemical distribution from skim milk into curd and whey. Conditions: for concentration ratio of 0% moisture curd to whey: dry matter basis; for Curd Fraction % Dose: phase 2, based on skim milk; for curd/whey concentration ratio: curd as obtained (70% moisture). In kind it is physicochemical, cow.
For series [4] the following is noted: cited from earlier work; for log P / log D (pH 7.4): discussion compounds, Table S4.
For series [5] the following is noted: cited from earlier work. The source holds these as a separate data set.
Series [6] can be described thus: Literature reports of residue distribution in milk products. On the set-up: species or system cow. As to conditions: 15% of whole milk in their study, 10% in ours; from ref 18 data.
For series [7] the following is noted: cited from earlier work. The source holds these as a separate data set.

Where “and” joins values, the source holds several entries; their conditions need not be identical. Identical values can stand only once. Like-named read-outs stand apart in the source and are kept apart here. A value given as a limit tells only on which side of the number the result lay.

On to `Clc1cc2c(cc1Cl)Oc1cc(Cl)c(Cl)cc1O2` [2,3,7,8-TCDD], for which the “residues in cream exceeding those in milk, factor” value in series [1] (lactating dairy cows, medium heavy cream) is on record as “about 10”.
Turning to `Oc1c(Cl)cc2c(c1Cl)Oc1cc(Cl)c(Cl)cc1O2` [2-OH-1378-TCDD, 2-hydroxy-1,3,7,8-tetrachlorodibenzo-p-dioxin], the “reduction in milk fat distribution by hydroxylation” value in series [2] (2-OH-1378-TCDD compared with 1278-TCDD) was ~30%. Besides, in series [2], the “distribution into milk fat, percent of total amount added” value (“distribution into milk fat, percent” for short) is given as 54% and the “ratio of concentration in milk fat to initial concentration in whole milk” value (from here on “ratio of concentration in milk fat”) was found to be 11.2. The “greater distribution into whey compared to the unsubstituted analogue” value in series [3] (2-OH-1378-TCDD vs 1278-TCDD, 3′-MeSO2-PCB-101 vs PCB-118) is ~30%. Besides, the “percent of whole milk chemical distributed to whey” value in series [3] (based on whole milk) was “About 25%”. Besides, in series [3] (mean of doses), the “concentration ratio of 0% moisture curd to whey” value was determined as 18; the “chemical distributed into whey, percent of chemical in skim milk” value is on record as 35–60%; the “chemical retained in the curd fraction, percent of chemical in skim milk” value was 40–60%.
Regarding `Clc1cc2c(cc1Cl)Oc1c(ccc(Cl)c1Cl)O2` [1278-TCDD, 1,2,7,8-tetrachlorodibenzo-p-dioxin], in series [2], the “distribution into milk fat, percent” value is reported as > 80%; the “ratio of concentration in milk fat” value was 18–20 and 18.7. Moreover, in series [3] (mean of doses), the “concentration ratio of 0% moisture curd to whey” value is listed as 115 and the “chemical retained in the curd fraction, percent of chemical in skim milk” value is ~80%.
Take `Brc1ccc(Oc2cc(Br)c(Br)cc2Br)c(Br)c1` [BDE-99, 2,2′,4,4′,5-pentabromodiphenyl ether]: in series [2], the “distribution into milk fat, percent” value was > 80% and the “ratio of concentration in milk fat” value is recorded as 18–20. In series [3] (mean of doses), the “concentration ratio of 0% moisture curd to whey” value was determined as 327 and the “chemical retained in the curd fraction, percent of chemical in skim milk” value is given as ~80%. Also, the “Curd Fraction % Dose” value in series [3] (nominal 20 nM in whole milk) came to 73%. The “Curd Fraction % Dose” value in series [3] (nominal 200 nM in whole milk) is on record as 80%. In series [3] (nominal 2000 nM in whole milk), the “Curd Fraction % Dose” value is on record as 92%.
On to `CC(C)(c1ccc(O)cc1)c1ccc(O)cc1` [BPA, bisphenol A], for which the “distribution into milk fat, percent” value in series [2] is listed as 39%. Also, in series [3] (mean of doses), the curd/whey concentration ratio was 29 and the “concentration ratio of 0% moisture curd to whey” value is 111.
Regarding `Clc1ccc(C(c2ccc(Cl)cc2)C(Cl)(Cl)Cl)cc1` [DDT, dichlorodiphenyltrichloroethane], the “starting DDT degraded to DDE and DDD” value in series [1] (during the manufacturing of cheese) is recorded as 27–53%. Moreover, the “concentration in Swiss-type cheese relative to original whole milk” value in series [1] (milk of dairy cows fed DDT) was ~8 times. For the same compound, the cream/whole milk ratio in series [1] (pasteurized milk) is on record as 12. Besides, the cream/whole milk ratio in series [1] (raw milk) was 9.0. Further, in series [4], the “log P” value is 5.92 and the “log D (pH 7.4)” value is given as 6.22.
As for `C[C@]12CC[C@@H]3c4ccc(O)cc4CC[C@H]3[C@@H]1CCC2=O` [E1, estrone], in series [2], the “distribution into milk fat, percent” value is 74%; the “ratio of concentration in milk fat” value was 15.8 and ~16. Further, in series [3] (mean of doses), the curd/whey concentration ratio was found to be 24 and the “concentration ratio of 0% moisture curd to whey” value came to 104.
Take `CC[C@H]1OC(=O)[C@H](C)[C@@H](O[C@H]2C[C@@](C)(OC)[C@@H](O)[C@H](C)O2)[C@H](C)[C@@H](O[C@@H]2O[C@H](C)C[C@H](N(C)C)[C@H]2O)[C@](C)(O)C[C@@H](C)C(=O)[C@H](C)[C@@H](O)[C@]1(C)O` [ERY, erythromycin]: the curd/whey concentration ratio in series [5] is listed as 2.4.
Take `O=C(O)CNCP(=O)(O)O` [GLY, glyphosate]: in series [2], the “distribution into milk fat, percent” value came to 0.95%; the “ratio of concentration in milk fat” value is 0.2; the “ratio of concentration in skim milk to initial concentration in whole milk” value is ~1. Moreover, in series [3] (mean of doses), the curd/whey concentration ratio was 1.4; the “concentration ratio of 0% moisture curd to whey” value is 2.5; the “chemical retained in the curd fraction, percent of chemical in skim milk” value was “approximately 16.5%”.
As to `O=[N+]([O-])NC1=NCCN1Cc1ccc(Cl)nc1` [IMI, imidacloprid], in series [2], the “distribution into milk fat, percent” value is 2.5% and the “ratio of concentration in skim milk to initial concentration in whole milk” value is given as ~1. Further, in series [3] (mean of doses), the curd/whey concentration ratio was found to be 2.4; the “concentration ratio of 0% moisture curd to whey” value is 9.2; the “chemical retained in the curd fraction, percent of chemical in skim milk” value came to 23.7%.
Turning to `CN(C)[C@@H]1C(O)=C(C(N)=O)C(=O)[C@@]2(O)C(O)=C3C(=O)c4c(O)cccc4[C@@](C)(O)[C@H]3[C@H](O)[C@@H]12` [OTET, oxytetracycline], the curd/whey concentration ratio in series [5] is recorded as 1.4.
Take `Clc1ccc(-c2cc(Cl)c(Cl)cc2Cl)cc1Cl` [PCB-118, 2,3′,4,4′,5-pentachlorobiphenyl]: in series [2], the “distribution into milk fat, percent” value is recorded as > 80%; the “ratio of concentration in milk fat” value was 18–20 and 19.5. Also, in series [3] (mean of doses), the “concentration ratio of 0% moisture curd to whey” value stood at 136 and the “chemical retained in the curd fraction, percent of chemical in skim milk” value is reported as ~80%.
With `CC1(C)S[C@@H]2[C@H](NC(=O)Cc3ccccc3)C(=O)N2[C@H]1C(=O)O` [PENG, penicillin G], the curd/whey concentration ratio in series [5] is 1.2.
With `CS(=O)(=O)c1ccc([C@@H](O)[C@@H](CO)NC(=O)C(Cl)Cl)cc1` [TAP, thiamphenicol], the curd/whey concentration ratio in series [5] is on record as 1.3.
As for `O=C(Nc1ccc(Cl)cc1)Nc1ccc(Cl)c(Cl)c1` [TCC, triclocarban], in series [2], the “distribution into milk fat, percent” value is > 80% and 85%; the “ratio of concentration in milk fat” value was 18–20 and 17.6. Moreover, in series [3] (mean of doses), the “concentration ratio of 0% moisture curd to whey” value worked out at 46; the “chemical distributed into whey, percent of chemical in skim milk” value was 35–60%; the “chemical retained in the curd fraction, percent of chemical in skim milk” value was 40–60%; the “percent of skim milk chemical in 0% moisture curd” value is listed as 57%.
Regarding `CC(=O)Nc1ccc(O)cc1` [TYL, acetaminophen], the curd/whey concentration ratio in series [5] is given as 1.5.
Consider `CNP(=O)(OC)Oc1ccc(C(C)(C)C)cc1Cl` (stereo not shown) [cruformate], for which the “concentration into cream adjusted to reflect lipid mass yield” value in series [6] is ~7.6 fold. Further, the “concentration into cream relative to whole milk” value in series [1] (fed to cows) is given as “fivefold”. The curd/whey concentration ratio in series [1] (starting milk concentration 0.07 ppm) is 22; in series [1] (starting milk concentration 0.16 ppm) it was 31. Besides, the “log P” value in series [4] was 3.33.
As for `ClC1=C(Cl)C2(Cl)C3C4CC(C5OC45)C3C1(Cl)C2(Cl)Cl` (stereo not shown) [endrin], the curd/whey concentration ratio in series [1] is reported as 91. Moreover, in series [4], the “log P” value is on record as 4.9 and the “log D (pH 7.4)” value was 4.9.
Regarding `COP(=S)(OC)Oc1ccc(SC)c(C)c1` [fenthion], in series [1], the “concentration ratio of fat/whole milk” value is ~5 and the “percent found in the fat fractions” value is recorded as 80–90%. Besides, the “log P” value in series [4] is listed as 3.21.
For the compound `ClC1=C(Cl)C2(Cl)C3C(Cl)C=CC3C1(Cl)C2(Cl)Cl` (stereo not shown) [heptachlor], the curd/whey concentration ratio in series [1] is given as 22. The “log P” value in series [4] is recorded as 5.46.
In the case of `Cl[C@H]1[C@H](Cl)[C@@H](Cl)[C@@H](Cl)[C@H](Cl)[C@H]1Cl` [lindane, 1,2,3,4,5,6-hexachlorcyclohexane], in series [1], the “concentration in curd relative to whey” value is on record as “approximately 12 times” and the reduction by pasteurization is recorded as 65–73%. In series [1] (during 6 months in storage), the “losses in Ras cheese” value is listed as 36.7%. Moreover, the “losses during refrigeration of yogurt” value in series [1] (over 3 days) is 1.4–8%. For the same compound, in series [4], the “log P” value is 3.99.
On to ivermectin [IVR], for which the “milk fat/whole milk concentration ratio” value in series [7] was 18.4. For the same compound, the “log P, parenthesis value” in series [4] (Table S1, value cited in the earlier paper) is recorded as 6.61.

A word on the log P: it is the decadic logarithm of the partition coefficient of the neutral form, usually between octanol and water.
